Assay type in all cases: cell-based
Assay [1] concerns EGFR Del19/T790M/C797S (BaF3-DTC cells). The assay is described as follows: EGFR degradation HTRF assay, BaF3-DTC cells. The settings on record: 16h treatment; for DTC Dmax (%): maximum percentage of degradation; for DC50: read-out: DTC DC50. The procedure, abridged: (§1)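 EGFR remaining after a 16 h, 37 °C exposure (8 doses, 5-fold steps from 10 uM final, 0.2% DMSO) was quantified by HTRF antibodies in cell lysate. Percent inhibition relative to DMSO control was fitted by four-parameter logistic to give DC50; Dmax denotes maximal degradation.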

The next assay has as its target T1, EGFR (HCC827 cells) (Homo sapiens, UniProt P00533, DEL746-750).
T1 construct: endogenous in cells; host or cells: HCC827
The experiment in a line: EGFR degradation HTRF assay, HCC827 cells. The settings on record: HCC827, 16h treatment; for Dmax: maximum percentage of degradation. The procedure, abridged: as §1

Assay [2] has as its target T2, EGFR L858R/T790M/C797S (BaF3-LTC cells) (Homo sapiens, UniProt P00533, C797S/L858R/T790M).
T2 construct: expressed in transfected cells; host or cells: BaF3
The experiment in a line: EGFR degradation HTRF assay, BaF3-LTC cells. As to conditions: BaF3-LTC, 16h treatment; for Dmax: maximum percentage of degradation, read-out: LTC Dmax (%); for DC50: read-out: LTC DC50. A digest of the protocol:
as §1

In assay [3] the target is T3, EGFR L858R/T790M (H1975-clone #36, homozygous) (Homo sapiens, UniProt P00533, L858R/T790M).
T3 construct: designed to specifically target WT EGFR but preserve the L858R/T790M copy; host or cells: H1975-clone #36
The assay is described as follows: EGFR degradation HTRF assay, H1975-clone #36 cells. As to conditions: H1975 #36, 16h treatment; for Dmax: NCI-H1975, maximum percentage of degradation. A digest of the protocol: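 Eight-point, 5-fold series starting at 10 uM (0.2% DMSO) applied for 16 h, 37 °C, to a WT-EGFR-knockout H1975 clone carrying only L858R/T790M. Lysates read by HTRF overnight. Degradation percentage relative to DMSO control fitted for DC50, with Dmax as maximum degradation.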

Assay [4] concerns the target T4, EGFR L858R/C797S (BaF3 LC cells) (Homo sapiens, UniProt P00533, C797S/L858R).
T4 construct: expressed in transfected cells; host or cells: BaF3
The assay is described as follows: EGFR degradation HTRF assay, BaF3 LC cells. The settings on record: BaF3 LC, 16h treatment; for DC50: read-out: BaF3 LC DC50.

For assay [5], the system named is EGFR Del19/T790M/C797S (H1975-clone #28). The experiment in a line: EGFR degradation HTRF assay, H1975-clone #28 DTC cells. As to conditions: H1975 # 28 DTC cells; for DC50: EGFR degradation, IC50 (DC50) from curve fit, read-out: DC50(nM) H1975 # 28 DTC; for Dmax (%) H1975 # 28 DTC: maximum percentage of inhibition (degradation). A digest of the protocol:
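H1975 clones stably overexpressing mutant EGFR, with endogenous EGFR knocked out by sgRNA and homozygosity confirmed by sequencing, were treated 16h at 37° C. with compounds in 0.2% DMSO (top final 10 uM, 5-fold, 8 doses). Lysates were read by HTRF (665/620 nm); DC50 and Dmax came from fitting % degradation versus DMSO control.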

The test system of assay [6] is EGFR Del19/C797S (H1975-clone #23). The assay is described as follows: EGFR degradation HTRF assay, H1975-clone #23 DC cells. As to conditions: 16h treatment; for H1975 #23 DC Dmax (%): maximum percentage of degradation; for DC50: H1975 #23 DC, read-out: H1975 #23 DC DC50. How it is done: H1975-clone #28(Del19/T790M/C797S) and H1975-clone #23(Del19/C797S). EGFR-Del19/T790M/C797S and EGFR-Del19/C797S were stably expressed in H1975 cell lines by lentivirus-mediated over-expression, respectively. The EGFR over-expressed cells then underwent gene knockout, in which the EGFR targeting sgRNA was designed to only target the endogenous EGFR copies and preserve the exogenous EGFR copies. Followed by the gene knockout, the edited H1975 cells were seeded in 96 well plates at the concentration of 1 cell/well, cultured for about 2 weeks to allow single clones formation. The formed clones were screened by DNA sequencing and whole exon sequencing analysis for the desired edition. H1975-clone #28 and H1975-clone #23 were finally confirmed as homozygous Del19/T790M/C797S EGFR and Del19/C797S EGFR clones, respectively.
BaF3 WT(wild type), BaF3-LTC(L858R/T790M/C797S) and BaF3-DTC(Del19/T790M/C797S) cells are treated with compounds diluted in 0.2% DMSO cell culture medium and incubate for 16h, 37° C., 5% CO2, H1975-#36, H1975-#28, H1975-#23 and HCC827 cells are treated with compounds diluted in 0.2% DMSO cell culture medium on day 2, incubate for 16h, 37° C., 5% CO2.the final concentriation of compounds in all assay is start with 10 uM, 5-fold dilution, total 8 doses were included.
After 16h treatment, add HTRF lysis buffer to each well; seal the plate and incubate 1 hour at room temperature on a plate shaker; Once the cells are lysed, 16 μL of cell lysate are transferred to a PE 384-well HTRF detection plate; 4 μL of pre-mixed HTRF antibodies are added to each well; Cover the plate with a plate sealer, spin 1000 rpm for 1 min, Incubate overnight at room temperature; Read on BMG PheraStar with HTRF protocol (337 nm-665 nm-620 nm).
The inhibition (degradation) percentage of the compound was calculated by the following equation: Inhibition percentage of Compound=100-100×(Signal-low control)/(High control-low control), wherein signal=each test compound group
High control=Cell group with added DMSO and without compound, indicating microplate readings without EGFR degradation;
Dmax is the maximum percentage of inhibition (degradation).
The IC50 (DC50) value of a compound can be obtained by fitting the following equation
Y=Bottom+(TOP−Bottom)/(1+((IC50/X)^hillslope))
Wherein, X and Y are known values, and IC50, Hillslope, Top and Bottom are the parameters obtained by fitting with software. Y is the inhibition percentage (calculated from the equation), X is the concentration of the compound; IC50 is the concentration of the compound when the 50% inhibition is reached. The smaller the IC50 value is, the stronger the inhibitory ability of the compound is. Vice versa, the higher the IC50 value is, the weaker the inhibitory ability of the compound is; Hillslope represents the slope of the fitted curve, generally around 1*; Bottom represents the minimum value of the curve obtained by data fitting, which is generally 0%±20%; Top represents the maximum value of the curve obtained by data fitting, which is generally 100%±20%. The experimental data were fitted by calculating and analyzing with Dotmatics data analysis software.

Some results are limits rather than exact numbers.

T3 sequence (P00533 25-1210 T790M/L858R): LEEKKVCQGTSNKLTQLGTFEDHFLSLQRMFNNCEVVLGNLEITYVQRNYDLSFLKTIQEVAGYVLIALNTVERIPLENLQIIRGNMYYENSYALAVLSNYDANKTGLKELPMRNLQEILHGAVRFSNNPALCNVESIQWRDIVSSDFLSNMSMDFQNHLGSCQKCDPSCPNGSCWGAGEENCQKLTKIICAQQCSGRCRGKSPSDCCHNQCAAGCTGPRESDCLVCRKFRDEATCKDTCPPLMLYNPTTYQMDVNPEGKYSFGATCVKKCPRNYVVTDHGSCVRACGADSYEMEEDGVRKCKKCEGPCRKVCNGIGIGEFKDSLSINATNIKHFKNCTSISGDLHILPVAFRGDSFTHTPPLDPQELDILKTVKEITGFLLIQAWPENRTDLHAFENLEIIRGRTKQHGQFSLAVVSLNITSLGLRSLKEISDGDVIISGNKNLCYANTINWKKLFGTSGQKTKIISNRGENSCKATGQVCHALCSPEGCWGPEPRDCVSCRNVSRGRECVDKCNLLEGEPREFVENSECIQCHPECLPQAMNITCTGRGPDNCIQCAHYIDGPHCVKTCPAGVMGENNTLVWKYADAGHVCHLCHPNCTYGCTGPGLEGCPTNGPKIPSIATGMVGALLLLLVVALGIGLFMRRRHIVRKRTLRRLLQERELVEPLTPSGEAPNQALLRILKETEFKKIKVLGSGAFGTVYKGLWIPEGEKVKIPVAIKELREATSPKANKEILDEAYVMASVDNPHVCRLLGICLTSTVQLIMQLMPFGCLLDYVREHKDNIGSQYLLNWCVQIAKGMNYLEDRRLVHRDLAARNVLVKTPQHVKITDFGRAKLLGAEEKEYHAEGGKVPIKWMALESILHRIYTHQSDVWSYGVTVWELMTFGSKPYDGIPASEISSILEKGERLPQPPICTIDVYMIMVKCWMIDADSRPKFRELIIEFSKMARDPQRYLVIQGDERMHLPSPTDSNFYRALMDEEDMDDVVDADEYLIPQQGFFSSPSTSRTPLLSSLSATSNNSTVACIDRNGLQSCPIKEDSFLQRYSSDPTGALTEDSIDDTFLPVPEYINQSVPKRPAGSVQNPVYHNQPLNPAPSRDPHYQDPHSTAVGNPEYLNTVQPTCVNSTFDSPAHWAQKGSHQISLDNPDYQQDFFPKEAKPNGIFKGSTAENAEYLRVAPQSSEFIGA
T2 sequence (P00533 25-1210 T790M/C797S/L858R): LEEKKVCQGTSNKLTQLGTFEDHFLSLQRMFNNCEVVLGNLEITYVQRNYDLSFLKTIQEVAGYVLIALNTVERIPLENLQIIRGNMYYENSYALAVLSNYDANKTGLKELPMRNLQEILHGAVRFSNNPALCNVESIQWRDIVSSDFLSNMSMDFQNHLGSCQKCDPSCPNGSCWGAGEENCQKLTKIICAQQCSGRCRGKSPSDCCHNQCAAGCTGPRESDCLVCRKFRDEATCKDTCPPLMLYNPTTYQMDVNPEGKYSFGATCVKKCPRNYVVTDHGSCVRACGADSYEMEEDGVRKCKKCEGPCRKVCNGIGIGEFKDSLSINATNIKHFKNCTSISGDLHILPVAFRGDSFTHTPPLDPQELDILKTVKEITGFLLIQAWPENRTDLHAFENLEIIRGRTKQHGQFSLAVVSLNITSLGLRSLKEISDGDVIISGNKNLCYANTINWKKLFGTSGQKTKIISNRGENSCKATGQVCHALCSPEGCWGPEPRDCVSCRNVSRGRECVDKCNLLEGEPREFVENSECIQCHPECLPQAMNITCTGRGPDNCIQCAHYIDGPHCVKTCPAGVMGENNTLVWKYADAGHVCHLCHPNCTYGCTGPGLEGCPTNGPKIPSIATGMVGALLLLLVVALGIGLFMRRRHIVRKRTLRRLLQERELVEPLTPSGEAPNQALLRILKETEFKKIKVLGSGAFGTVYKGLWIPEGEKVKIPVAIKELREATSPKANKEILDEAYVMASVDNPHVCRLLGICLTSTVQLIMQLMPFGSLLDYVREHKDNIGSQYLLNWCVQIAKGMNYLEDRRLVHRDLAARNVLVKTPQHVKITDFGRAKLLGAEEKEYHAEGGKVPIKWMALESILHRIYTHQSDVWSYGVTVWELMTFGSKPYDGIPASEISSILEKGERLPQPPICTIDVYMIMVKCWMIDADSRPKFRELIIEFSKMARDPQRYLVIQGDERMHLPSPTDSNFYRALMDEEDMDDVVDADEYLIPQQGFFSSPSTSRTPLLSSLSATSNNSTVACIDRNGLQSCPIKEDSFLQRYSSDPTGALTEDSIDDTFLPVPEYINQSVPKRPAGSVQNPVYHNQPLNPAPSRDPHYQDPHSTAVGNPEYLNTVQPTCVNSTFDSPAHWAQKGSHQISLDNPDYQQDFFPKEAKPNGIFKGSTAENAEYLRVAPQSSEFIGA
T1 sequence (P00533 with tags, fused parts or gaps DEL746-750): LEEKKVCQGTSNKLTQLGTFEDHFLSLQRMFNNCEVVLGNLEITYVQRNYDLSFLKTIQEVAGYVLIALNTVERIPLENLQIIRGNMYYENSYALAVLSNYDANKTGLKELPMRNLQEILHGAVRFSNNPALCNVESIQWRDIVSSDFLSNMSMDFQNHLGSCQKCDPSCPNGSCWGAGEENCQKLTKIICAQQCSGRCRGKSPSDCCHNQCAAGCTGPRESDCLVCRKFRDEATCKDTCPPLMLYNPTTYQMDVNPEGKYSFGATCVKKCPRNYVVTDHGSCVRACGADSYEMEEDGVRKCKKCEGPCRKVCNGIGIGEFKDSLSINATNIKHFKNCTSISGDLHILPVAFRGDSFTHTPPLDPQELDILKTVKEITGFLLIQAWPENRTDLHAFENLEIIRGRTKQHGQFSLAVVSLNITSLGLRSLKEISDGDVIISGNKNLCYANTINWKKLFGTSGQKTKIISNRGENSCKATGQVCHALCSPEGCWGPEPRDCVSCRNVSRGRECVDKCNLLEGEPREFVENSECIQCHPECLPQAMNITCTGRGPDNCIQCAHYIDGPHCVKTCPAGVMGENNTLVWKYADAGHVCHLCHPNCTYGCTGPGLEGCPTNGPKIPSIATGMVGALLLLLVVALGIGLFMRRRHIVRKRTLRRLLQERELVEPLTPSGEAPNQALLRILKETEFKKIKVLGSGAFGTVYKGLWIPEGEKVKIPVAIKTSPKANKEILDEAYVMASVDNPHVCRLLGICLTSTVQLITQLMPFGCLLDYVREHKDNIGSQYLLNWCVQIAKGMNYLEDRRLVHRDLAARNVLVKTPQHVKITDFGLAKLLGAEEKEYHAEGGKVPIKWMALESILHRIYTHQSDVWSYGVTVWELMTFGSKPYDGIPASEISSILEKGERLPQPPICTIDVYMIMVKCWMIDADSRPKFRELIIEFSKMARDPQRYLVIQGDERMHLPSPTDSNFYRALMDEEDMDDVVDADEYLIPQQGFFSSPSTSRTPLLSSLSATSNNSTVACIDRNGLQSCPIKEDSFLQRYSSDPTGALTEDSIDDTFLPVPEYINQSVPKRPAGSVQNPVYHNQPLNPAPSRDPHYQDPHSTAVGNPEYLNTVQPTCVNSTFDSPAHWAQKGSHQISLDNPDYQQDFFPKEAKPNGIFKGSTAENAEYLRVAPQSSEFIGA
T4 sequence (P00533 25-1210 C797S/L858R): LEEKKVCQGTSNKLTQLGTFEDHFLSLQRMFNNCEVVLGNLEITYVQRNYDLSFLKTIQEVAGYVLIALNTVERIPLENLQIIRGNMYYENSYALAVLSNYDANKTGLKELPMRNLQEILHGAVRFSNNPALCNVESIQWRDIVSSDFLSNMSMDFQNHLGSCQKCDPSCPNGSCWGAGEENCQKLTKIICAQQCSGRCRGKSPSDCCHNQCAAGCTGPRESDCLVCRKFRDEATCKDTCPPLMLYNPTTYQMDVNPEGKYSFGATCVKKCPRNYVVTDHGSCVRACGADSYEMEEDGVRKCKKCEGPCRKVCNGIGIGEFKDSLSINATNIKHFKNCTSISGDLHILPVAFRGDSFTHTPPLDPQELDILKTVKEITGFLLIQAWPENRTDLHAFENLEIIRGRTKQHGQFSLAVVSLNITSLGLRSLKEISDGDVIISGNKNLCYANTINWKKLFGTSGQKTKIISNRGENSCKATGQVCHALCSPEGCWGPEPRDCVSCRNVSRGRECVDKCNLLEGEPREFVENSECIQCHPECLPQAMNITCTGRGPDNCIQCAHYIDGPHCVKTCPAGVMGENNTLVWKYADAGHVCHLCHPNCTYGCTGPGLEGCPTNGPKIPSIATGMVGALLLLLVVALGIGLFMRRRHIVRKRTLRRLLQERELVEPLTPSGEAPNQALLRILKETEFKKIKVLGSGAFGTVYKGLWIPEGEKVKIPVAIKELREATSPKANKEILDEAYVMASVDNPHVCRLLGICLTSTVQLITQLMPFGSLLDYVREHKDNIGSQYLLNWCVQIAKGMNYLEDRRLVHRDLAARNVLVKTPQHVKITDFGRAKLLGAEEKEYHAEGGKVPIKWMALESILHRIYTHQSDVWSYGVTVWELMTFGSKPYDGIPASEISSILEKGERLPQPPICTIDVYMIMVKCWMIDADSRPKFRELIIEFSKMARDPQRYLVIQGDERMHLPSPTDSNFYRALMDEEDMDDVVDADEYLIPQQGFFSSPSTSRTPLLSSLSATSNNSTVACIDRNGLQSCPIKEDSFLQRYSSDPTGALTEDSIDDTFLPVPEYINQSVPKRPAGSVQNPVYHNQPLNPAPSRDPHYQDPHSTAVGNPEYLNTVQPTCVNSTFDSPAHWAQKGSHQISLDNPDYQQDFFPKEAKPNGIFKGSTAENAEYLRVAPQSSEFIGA

Take `CCc1cc(Nc2ncc(Br)c(Nc3ccc4c(=O)n(C)ncc4c3P(C)(C)=O)n2)c(OC)cc1N1CCC(N2CCN(CCC3CCN(c4cc(F)c(C5CCC(=O)NC5=O)c(F)c4)CC3)CC2)CC1` (stereo not shown) [Example 270, 3-(4-(4-(2-(4-(1-(4-((5-bromo-4-((5-(dimethylphosphoryl)-2-methyl-1-oxo-1,2-dihydrophthalazin-6-yl)amino)pyrimidin-2-yl)amino)-2-ethyl-5-methoxyphenyl)piperidin-4-yl)piperazin-1-yl)ethyl)piperidin-1-yl)-2,6-difluorophenyl)piperidine-2,6-dione]: the “DTC Dmax (%)” value in assay [1] worked out at 91.36%. The DC50 was 6.97 nM in assay [1], 5.43 nM at EGFR (HCC827 cells), 24 nM in assay [2] and 17.1 nM in assay [3]. Also, the Dmax on EGFR (HCC827 cells) came out at 89%; in assay [2], 84.2%; in assay [3], 84.6%.
With `CCc1cc(Nc2ncc(Br)c(Nc3ccc4nccnc4c3P(C)(C)=O)n2)c(OC)cc1N1CCC(N2CCN(C3CC(c4ccc5c(c4)C(C)(C)C(=O)N5C4CCC(=O)NC4=O)C3)CC2)CC1` (stereo not shown) [Example 317, 3-(5-(3-(4-(1-(4-((5-bromo-4-((5-(dimethylphosphoryl)quinoxalin-6-yl)amino)pyrimidin-2-yl)amino)-2-ethyl-5-methoxyphenyl)piperidin-4-yl)piperazin-1-yl)cyclobutyl)-3,3-dimethyl-2-oxoindolin-1-yl)piperidine-2,6-dione], the “DTC Dmax (%)” value in assay [1] is recorded as 90.74%. In addition, the DC50 was 5.17 nM in assay [1], 0.779 nM at EGFR (HCC827 cells), 9.47 nM in assay [2] and over 80 nM in assay [3]. The Dmax is 51.6% on EGFR (HCC827 cells), 94.1% in assay [2] and 47% in assay [3].
`CCc1cc(Nc2ncc(Br)c(Nc3ccc4nccnc4c3P(C)(C)=O)n2)c(OC)cc1N1CCC(N2CCN(CCc3cccc4c3n(C)c(=O)n4C3CCC(=O)NC3=O)CC2)CC1` (stereo not shown) [Example 318, 3-(4-(2-(4-(1-(4-((5-bromo-4-((5-(dimethylphosphoryl)quinoxalin-6-yl)amino)pyrimidin-2-yl)amino)-2-ethyl-5-methoxyphenyl)piperidin-4-yl)piperazin-1-yl)ethyl)-3-methyl-2-oxo-2,3-dihydro-1H-benzo[d]imidazol-1-yl)piperidine-2,6-dione]: in assay [1], the “DTC Dmax (%)” value is listed as 91.99%. Also, the DC50 in assay [1] worked out at 3.1 nM; on EGFR (HCC827 cells), 0.601 nM; in assay [2], 4.4 nM; in assay [3], 2.14 nM. For the same molecule, the Dmax at EGFR (HCC827 cells) amounted to 85.2%; in assay [2], 93.3%; in assay [3] it was 88.8%.
For `CCc1ccc2c(P(C)(C)=O)c(Nc3nc(Nc4cc(CC)c(N5CCC(N6CCN(CCc7cc(F)c([C@H]8CCC(=O)NC8=O)c(F)c7)CC6)CC5)cc4OC)ncc3Br)ccc2n1` [Example 484, (R)-3-(4-(2-(4-(1-(4-((5-bromo-4-((5-(dimethylphosphoryl)-2-ethylquinolin-6-yl)amino)pyrimidin-2-yl)amino)-2-ethyl-5-methoxyphenyl)piperidin-4-yl)piperazin-1-yl)ethyl)-2,6-difluorophenyl)piperidine-2,6-dione], the DC50 in assay [4] was 11.9 nM. For the same molecule, in assay [5], the DC50 worked out at 0.781 nM and the “Dmax (%) H1975 # 28 DTC” value came out at 89.6%. Further, in assay [6], the “H1975 #23 DC Dmax (%)” value came to 82.99% and the DC50 was determined as 3.54 nM.
The corresponding values for `CCc1ccc2c(P(C)(C)=O)c(Nc3nc(Nc4cc(CC)c(N5CCC(N6CCN(C(=O)[C@@H]7CCN(c8cc(F)c([C@H]9CCC(=O)NC9=O)c(F)c8)C7)CC6)CC5)cc4OC)ncc3Br)ccc2n1` [Example 489, (R)-3-(4-((R)-3-(4-(1-(4-((5-bromo-4-((5-(dimethylphosphoryl)-2-ethylquinolin-6-yl)amino)pyrimidin-2-yl)amino)-2-ethyl-5-methoxyphenyl)piperidin-4-yl)piperazine-1-carbonyl)pyrrolidin-1-yl)-2,6-difluorophenyl)piperidine-2,6-dione] are 19.7 nM, 1.37 nM, 82.72%, 59.94% and 4.72 nM.
In the case of `CCc1ccc2c(P(C)(C)=O)c(Nc3nc(Nc4cc(CC)c(N5CCC(N6CCN(CCc7cccc8c7n(C)c(=O)n8C7CCC(=O)NC7=O)CC6)CC5)cc4OC)ncc3Br)ccc2n1` (stereo not shown) [Example 516, 3-(4-(2-(4-(1-(4-((5-bromo-4-((5-(dimethylphosphoryl)-2-ethylquinolin-6-yl)amino)pyrimidin-2-yl)amino)-2-ethyl-5-methoxyphenyl)piperidin-4-yl)piperazin-1-yl)ethyl)-3-methyl-2-oxo-2,3-dihydro-1H-benzo[d]imidazol-1-yl)piperidine-2,6-dione], the Dmax in assay [4] (maximum percentage of degradation, read-out: BaF3 LC Dmax (%)) came out at 94.8%. Besides, the DC50 in assay [4] came to 1.83 nM. Besides, in assay [6], the “H1975 #23 DC Dmax (%)” value amounted to 78.66% and the DC50 was 1.11 nM.
In the case of `CCc1cc(Nc2ncc(Br)c(Nc3ccc4nc(C)ccc4c3P(C)(C)=O)n2)c(OC)cc1N1CCC(N2CCN(C(=O)[C@@H]3CCN(c4cc(F)c([C@H]5CCC(=O)NC5=O)c(F)c4)C3)CC2)CC1` [Example 750, (R)-3-(4-((R)-3-(4-(1-(4-((5-bromo-4-((5-(dimethylphosphoryl)-2-methylquinolin-6-yl)amino)pyrimidin-2-yl)amino)-2-ethyl-5-methoxyphenyl)piperidin-4-yl)piperazine-1-carbonyl)pyrrolidin-1-yl)-2,6-difluorophenyl)piperidine-2,6-dione], the results for the DC50 in assay [4], in assay [5] and in assay [6] were 26.1 nM, 1.17 nM and 6.52 nM, respectively. For the same molecule, the “Dmax (%) H1975 # 28 DTC” value in assay [5] worked out at 84.8%. In addition, in assay [6], the “H1975 #23 DC Dmax (%)” value is 74.02%.

(Values after US20230265116A1, “DEGRADATION OF (EGFR) BY CONJUGATION OF EGFR INHIBITORS WITH E3 LIGASE LIGAND AND METHODS OF USE” (BEIGENE, LTD., priority 2020, published 2023).)
